Experimental findings from article PMC11995724, “Antibiotic target discovery by integrated phenotypic and activity-based profiling of electrophilic fragments” (Cell chemical biology, 2025) are described below.

By viability is commonly meant a read-out of living cells in per cent, often relative to untreated cells.

This series can be described thus: in vitro. The note with it: human, hek293t cells.
Procedure: Mammalian cytotoxicity measurement was performed using Cell Titer-Glo 2.0 Cell Viability Assay (Promega, G9243) according to the manufacturer protocol. In brief, mammalian cells were seeded into 384-well white plates (Greiner, 781080) and incubated at 37°C for one day. Compounds from the Cys-Library were dispensed into the assay plate using epMotion 96. The plates were then incubated at 37°C for two days. An equal volume of Cell Titer-Glo 2.0 reagent was added into each well of the assay plate using epMotion 96 and incubated at 22°C for 10 min, followed by luminescence measurement using a Cytation 5 plate reader (BioTek).
Consider `N#CC(=Cc1ccc(-c2ccc(Cl)cc2)o1)C(=O)NC1CC1` [9-K16, 3-[5-(4-chlorophenyl)furan-2-yl]-2-cyano-N-cyclopropylprop-2-enamide], for which the viability at 48 h, 25 µM was 91%.
As for `O=C(CCl)NC1CCS(=O)(=O)c2ccc(F)cc21` (stereo not shown) [7-H06, 2-chloro-N-(6-fluoro-1,1-dioxo-3,4-dihydro-2H-1lambda6-benzothiopyran-4-yl)acetamide], the viability at 48 h, 25 µM stood at 1.04%.
Turning to `C=CC(=O)N(Cc1ccc(F)c(C)c1)CC1(O)CCSCC1` [2-E13, N-[(4-fluoro-3-methylphenyl)methyl]-N-[(4-hydroxythian-4-yl)methyl]prop-2-enamide], the viability at 48 h, 25 µM amounted to 55.6%.
Turning to `C=CC(=O)N1CCC(C(=O)NCC(C)(C)C2(O)CCCC2)CC1` [2-D14, N-[2-(1-hydroxycyclopentyl)-2-methylpropyl]-1-(prop-2-enoyl)piperidine-4-carboxamide], the viability at 48 h, 25 µM is 76.9%.
As to `O=C(CN(CC1CCCO1)C(=O)CCl)N1CCCC1` (stereo not shown) [7-D18, 2-chloro-N-[2-oxo-2-(pyrrolidin-1-yl)ethyl]-N-[(oxolan-2-yl)methyl]acetamide], the viability at 48 h, 25 µM worked out at 99.8%.
In the case of `Cc1cccc(NC(=O)C(C)Cl)c1` (stereo not shown) [5-P10, 2-chloro-N-(3-methylphenyl)propanamide], the viability at 48 h, 25 µM was determined as 96.2%.
Regarding `CC(Cl)C(=O)Nc1cc(Cl)cc(Cl)c1` (stereo not shown) [4-D17, 2-chloro-N-(3,5-dichlorophenyl)propanamide], the viability at 48 h, 25 µM came out at 67.8%.
Consider `Cc1ccc(C=C(C#N)C(=O)NC2CCCCC2)cc1C` [8-G10, 2-cyano-N-cyclohexyl-3-(3,4-dimethylphenyl)prop-2-enamide], for which the viability at 48 h, 25 µM turned out to be 59.4%.
With `CC(Cl)C(=O)NC1CCCc2c1cnn2Cc1ccccc1` (stereo not shown) [7-G13, N-(1-benzyl-4,5,6,7-tetrahydro-1H-indazol-4-yl)-2-chloropropanamide] the figure was 87.2%; with `C=CC(=O)NCC1CCN(C)C1=O` (stereo not shown) [2-B05, N-[(1-methyl-2-oxopyrrolidin-3-yl)methyl]prop-2-enamide], 71.1%; with `C=CC(=O)N1CCC(c2nnnn2C)CC1` [2-I06, 1-[4-(1-methyl-1H-1,2,3,4-tetrazol-5-yl)piperidin-1-yl]prop-2-en-1-one], 95.6%.
Regarding `C=CC(=O)NCC1(c2ccccc2Cl)CCCCC1` [1-A17, N-{[1-(2-chlorophenyl)cyclohexyl]methyl}prop-2-enamide], the viability at 48 h, 25 µM came out at 64.2%.
With `CC(Cl)C(=O)Nc1ccc(NC(=O)c2cccs2)cc1` (stereo not shown) [6-G07, N-[4-(2-chloropropanamido)phenyl]thiophene-2-carboxamide], the viability at 48 h, 25 µM turned out to be 101%.
With `COc1ccc2cc(C=C(C#N)C(=O)NCc3ccccc3)ccc2c1` [9-D07, N-benzyl-2-cyano-3-(6-methoxynaphthalen-2-yl)prop-2-enamide], the viability at 48 h, 25 µM was determined as 108%.
Under `CCOc1cc2c(cc1C=C(C#N)C(N)=O)OC(C)C2` (stereo not shown) [9-D04, 2-cyano-3-(5-ethoxy-2-methyl-2,3-dihydro-1-benzofuran-6-yl)prop-2-enamide] stands 128%; under `O=C(CCl)NCC(=O)Nc1nccs1` [5-G22, 2-chloro-N-{[(1,3-thiazol-2-yl)carbamoyl]methyl}acetamide], 3.47%.
For `C=CC(=O)Nc1ccc(N2CCCCC2)c(F)c1` [2-I22, N-[3-fluoro-4-(piperidin-1-yl)phenyl]prop-2-enamide], the viability at 48 h, 25 µM turned out to be 92.5%.
With `COc1cc(Cl)c(C)cc1NC(=O)C(C#N)=CC=Cc1ccccc1` [8-A21, N-(4-chloro-2-methoxy-5-methylphenyl)-2-cyano-5-phenylpenta-2,4-dienamide], the viability at 48 h, 25 µM came to 82%.
On to `C=CC(=O)N(CC)CC(=O)N1CCC(c2nnc(C)o2)CC1` [3-A08, N-ethyl-N-{2-[4-(5-methyl-1,3,4-oxadiazol-2-yl)piperidin-1-yl]-2-oxoethyl}prop-2-enamide], for which the viability at 48 h, 25 µM turned out to be 66.3%.
As to `CN(CC(=O)Nc1ccc(Cl)cc1)C(=O)CCl` [4-D03, 2-chloro-N-{[(4-chlorophenyl)carbamoyl]methyl}-N-methylacetamide], the viability at 48 h, 25 µM stood at 0.468%.
In the case of `C=CC(=O)N[C@H](C)c1ccccc1OC(C)C` [3-N16, N-[(1R)-1-[2-(propan-2-yloxy)phenyl]ethyl]prop-2-enamide], the viability at 48 h, 25 µM was 82.5%.
Under `C=CC(=O)N1CCc2cc(C(N)=O)ccc21` [1-P03, 1-(prop-2-enoyl)-2,3-dihydro-1H-indole-5-carboxamide] stands 172%; under `CC(Cl)C(=O)Nc1cccc(S(=O)(=O)N2CCCCC2)c1` (stereo not shown) [5-L12, 2-chloro-N-[3-(piperidine-1-sulfonyl)phenyl]propanamide], 98.7%; under `O=C(CCl)Nc1ccc(F)c(F)c1F` [4-M05, 2-chloro-N-(2,3,4-trifluorophenyl)acetamide], 0.759%.
Consider `CCCCNC(=O)C(C#N)=Cc1c(Cl)nc2ccccn12` [9-O09, N-butyl-3-{2-chloroimidazo[1,2-a]pyridin-3-yl}-2-cyanoprop-2-enamide], for which the viability at 48 h, 25 µM came out at 129%.
With `CC(Cl)C(=O)N1CCN(C(=O)C(F)(F)F)C2(CCCCC2)C1` (stereo not shown) [7-K06, 2-chloro-1-[1-(2,2,2-trifluoroacetyl)-1,4-diazaspiro[5.5]undecan-4-yl]propan-1-one] the figure was 74%.
With `CCC(NC(=O)CCl)c1cccc(OC)n1` (stereo not shown) [7-D08, 2-chloro-N-[1-(6-methoxypyridin-2-yl)propyl]acetamide] the figure was 1.69%; with `C=CC(=O)Nc1ccccc1-c1nnnn1C` [1-M05, N-[2-(1-methyl-1H-1,2,3,4-tetrazol-5-yl)phenyl]prop-2-enamide], 79.7%.
`CNC(=O)C(NC(=O)CCl)c1ccccc1` (stereo not shown) [6-M06, 2-(2-chloroacetamido)-N-methyl-2-phenylacetamide]: the viability at 48 h, 25 µM turned out to be 0.807%.
Take `CC(Cl)C(=O)NCCc1nc(C2CCCCC2)cs1` (stereo not shown) [7-F09, 2-chloro-N-[2-(4-cyclohexyl-1,3-thiazol-2-yl)ethyl]propanamide]: the viability at 48 h, 25 µM is 84.8%.
Take `CCC1SC(=C(C#N)C(N)=O)N(c2ccc(C)cc2)C1=O` (stereo not shown) [8-J15, 2-cyano-2-[5-ethyl-3-(4-methylphenyl)-4-oxo-1,3-thiazolidin-2-ylidene]acetamide]: the viability at 48 h, 25 µM came to 117%.
Regarding `COc1ccc(NC(=O)C(C#N)=Cc2cnc3c(C)cccn23)cc1` [9-L03, 2-cyano-N-(4-methoxyphenyl)-3-{8-methylimidazo[1,2-a]pyridin-3-yl}prop-2-enamide], the viability at 48 h, 25 µM was found to be 111%.
With `Cn1cc(C=C(C#N)C(=O)NCc2ccco2)cn1` [8-L06, 2-cyano-N-[(furan-2-yl)methyl]-3-(1-methyl-1H-pyrazol-4-yl)prop-2-enamide] the figure was 89.4%; with `C=CC(=O)N1CCC(C(=O)NCc2cccc(Cl)c2F)CC1` [3-N12, N-[(3-chloro-2-fluorophenyl)methyl]-1-(prop-2-enoyl)piperidine-4-carboxamide], 87.6%; with `C=CC(=O)NC1CCOCC1` [2-G17, N-(oxan-4-yl)prop-2-enamide], 93.3%.
Take `CC(Cl)C(=O)Nc1ccc(-c2c[nH]cn2)cc1` (stereo not shown) [5-F08, 2-chloro-N-[4-(1H-imidazol-4-yl)phenyl]propanamide]: the viability at 48 h, 25 µM amounted to 98.2%.
As for `CCn1c(-c2ccccc2)c(C(=O)CCl)c2ccccc21` [10-E12, 2-chloro-1-(1-ethyl-2-phenyl-1H-indol-3-yl)ethan-1-one], the viability at 48 h, 25 µM is 0.509%.
In the case of `C=CC(=O)NCCC(=O)N1CCOC(c2nc(C)cs2)C1` (stereo not shown) [3-K04, N-{3-[2-(4-methyl-1,3-thiazol-2-yl)morpholin-4-yl]-3-oxopropyl}prop-2-enamide], the viability at 48 h, 25 µM stood at 89.7%.
Under `C=CC(=O)NCCN1C(=O)SC(=Cc2ccc(Cl)cc2)C1=O` [2-C05, N-(2-{5-[(4-chlorophenyl)methylidene]-2,4-dioxo-1,3-thiazolidin-3-yl}ethyl)prop-2-enamide] stands 87.2%; under `COc1ccc(S(N)(=O)=O)cc1NC(=O)CCl` [6-O03, 2-chloro-N-(2-methoxy-5-sulfamoylphenyl)acetamide], 0.606%; under `CC(Cl)C(=O)N(C)C1CS(=O)(=O)c2ccc(Cl)cc21` (stereo not shown) [7-M14, 2-chloro-N-(5-chloro-1,1-dioxo-2,3-dihydro-1lambda6-benzothiophen-3-yl)-N-methylpropanamide], 73%.
As to `COC(=O)c1c(C)[nH]c(C(=O)C(C)Cl)c1C` (stereo not shown) [10-D22, methyl 5-(2-chloropropanoyl)-2,4-dimethyl-1H-pyrrole-3-carboxylate], the viability at 48 h, 25 µM amounted to 83.7%.
For `CCOC(=O)c1c(C)[nH]c(C)c1C(=O)CCl` [10-C10, ethyl 4-(2-chloroacetyl)-2,5-dimethyl-1H-pyrrole-3-carboxylate], the viability at 48 h, 25 µM worked out at 101%.
`Cc1nn(Cc2ccccc2)c(C)c1CNC(=O)CCl` [4-O11, N-[(1-benzyl-3,5-dimethyl-1H-pyrazol-4-yl)methyl]-2-chloroacetamide]: the viability at 48 h, 25 µM turned out to be 1.47%.
Turning to `N#CC(=Cc1ccco1)C(=O)Nc1cccc2ncccc12` [8-B20, 2-cyano-3-(furan-2-yl)-N-(quinolin-5-yl)prop-2-enamide], the viability at 48 h, 25 µM is 85.9%.
Regarding `CCOc1ccc(C=C(C#N)C(=O)N2CCc3sccc3C2)cc1` [8-G22, 3-(4-ethoxyphenyl)-2-{4H,5H,6H,7H-thieno[3,2-c]pyridine-5-carbonyl}prop-2-enenitrile], the viability at 48 h, 25 µM was 61.5%.
As for `CCN(Cc1cccc(C)c1)C(=O)CCl` [5-J16, 2-chloro-N-ethyl-N-[(3-methylphenyl)methyl]acetamide], the viability at 48 h, 25 µM came out at 1.39%.
With `Cc1noc(C23CC(CN2C(=O)C(C)Cl)C3)n1` (stereo not shown) [7-E10, 2-chloro-1-[1-(3-methyl-1,2,4-oxadiazol-5-yl)-2-azabicyclo[2.1.1]hexan-2-yl]propan-1-one] the figure was 93.2%; with `Cc1cnc(-c2cccc(NC(=O)C(C#N)=Cc3ccco3)c2)o1` [9-M18, 2-cyano-3-(furan-2-yl)-N-[3-(5-methyl-1,3-oxazol-2-yl)phenyl]prop-2-enamide], 116%.
